According to patent publication US9259433B2, “Synergistic antiviral compositions comprising a viral attachment inhibitor, an integration inhibitor, and a proviral transcription inhibitor, and their use” (priority 2007, dated 2016):
Where “and” joins values, the source holds several entries; their conditions need not be identical. Equal values may be shown once. Read-outs that look alike come from different tables or passages of the source.

Columns and labels:
[1] = Topical toxicity in guinea pigs; type: in vivo
[2] = test system: HIV Sp1 enhancer sequence; test: Binding to Sp1 enhancer sequence by ethidium displacement; details: excitation 517 nm, emission 596 nm
Description: The mechanism underlying the antiviral action for NDGA derivatives was largely unknown before 1995. In 1995, Huang's group first reported a molecular study on 3′-O-methyl NDGA (FIG. 11, Mal 4)(15) isolated from creosote bush (Larrea tridentate) (16,3). […] NDGA derivatives interfere with the binding of transcription factor Sp1 to the promoter of the HIV proviral template. The target of Mal.4 is mapped to nucleotides −87 to −40, the Sp1 binding sites of the HIV long terminal repeat (LTR). […] However, large preparations of such NDGA derivatives from plant sources are labor intensive and costly. In anticipation of the possible clinical use of lignans in controlling Sp1-regulated viral and tumor growth in humans, nine different methylated NDGAs and several water soluble NDGA derivatives were synthesized chemically in large quantities with low cost (17, 18, 26, FIG. 11). Unsubstituted NDGA was used as the parent substrate. […]

HSV-1 = test: Dorsal cutaneous guinea pig model of HSV-1 infection; type: in vivo
Description: M4N and G4N were tested for their abilities to prevent HSV-1 infection in two animal model systems. The dorsal cutaneous guinea pig model system is a well-established model for HSV-1 infection that has been used in several studies to comparatively assess the potential efficacy of different topical formulations for treatment of herpes labialis. Straten M V, Carrasco D, Lee P, Tyring S K, Arch. Dermatol 137, 1232-1235 2001.

HIV-1RTMF = test: Drug combination study in H9 cells infected with HIV-1RTMF, p24 assay; type: cell-based
Description: We tested drug combinations against two different cells infected with laboratory strain of HIV-1 RTMF. For these drug combinational studies, both the H9 cells and human PBMC have been used. We first tested how our inhibitors affect one specific strain of HIV which is resistant to drug against RT (HIV-1RTMF). Briefly H9 (1×10^5/ml) were infected with HIV-1RTMF strain with a multiplicity of infection of 0.1. These cells were further tested with three drugs, M522, Gen-1 and G4N, either in combination or separately (8, 10, 21B). After 4-day incubation at 37° C., H9 cells were subcultured with fresh culture medium containing appropriate concentrations 0, 1.25, 2.5, 5, 10, 20, 40 and 80 μM of each of the drugs, or of a combination of all three of the drugs, each at the indicated concentration. The inhibition for HIV-1 by these combinations of drugs was examined using p24 assay after 8 days.
(§1) Similarly, PBMC cells were isolated from a healthy blood sample and these cells were stimulated by PHA and IL-2. PBMC (5×10^6/ml) were infected with HIV-1RTMF. The cells were treated with three combinations of drugs, M522, Gen-1 and G4N. Fresh media and drugs were added after 4 days with drug concentrations 0, 1.25, 2.5, 5, 10, 20, 40 and 80 μM. The inhibition for HIV-1 by these combinations of drugs was also examined by using p24 assay after 8 days. […] In comparison, cytotoxicity for the three drugs combined to H9 cells was also analyzed using an MTT assay.

HSV-2 = test: Mouse vaginal model of HSV-2 infection; type: in vivo, female CF-1 mice
Description: P4N was also found to be quite effective.

[3] = test system: acyclovir-resistant strains of HSV-1; test: Inhibition of acyclovir-resistant strains of HSV-1; type: cell-based
Description: Because the inhibitory mechanism of this class of compounds is completely distinct from the antiviral mechanism of nucleoside analogue agents, there is little possibility of cross-resistance between these two classes of drugs.

[4] = mouse, in vivo
Description: The efficacies of M4N and G4N against HSV-2 in a mouse vaginal model system were also examined. Progestin-treated female CF-1 mice (10 per group) were infected with HSV-2 in the absence or presence of G4N (in PBS), P4N (in PBS), or M4N in Vaseline (23). At the end of three days, the vaginal lavages were collected from the washings of the vagina regions. The status of the vaginal HSV-2 infection and replication were examined by their cytopathic effects on cultured human foreskin fibroblast cells. Monitoring and scoring were carried out by three persons independently.

HIV-1IIIB = test: HIV replication in infected H9 cells, HIV/p24 monoclonal antibody assay; type: cell-based; details: Human immunodeficiency virus 1
Description: (§2) The inhibitory effect of M522 and M532 against HIV replication was further examined using 5 different strains of HIV-1, drug resistant and primary isolates in the presence of a variety of drug concentrations in infected H9 cells.

HIV-1MN = test: as above; type: cell-based; details: Human immunodeficiency virus 1
Description: as §2

HIV-1IIIBA17 variant = test: as above; type: cell-based; details: Human immunodeficiency virus 1, H9
Description: as §2

[5] = test system: HIV-1L1OR/M461/L63P.V82T/184V (protease inhibitor resistant virus); test: as above; type: cell-based; details: Human immunodeficiency virus 1, H9
Description: as §2

HIV-1 [6] = test: Acute HIV-1 infection of H9 cells; type: cell-based; details: Human immunodeficiency virus 1
Description: (§3) a. Salvia genus of Labiaceae family contains approximately 1000 species. 78 of these are distributed in different regions in China. […] An INi search was established based on an assay-guided purification procedure utilizing different concentrations of methanol, propanol, a two-layer extraction system (low salt water/butanol), and a high resolution inverted phase HPLC (Sperisorb OD S-2).

HIV = HIV entry in H9 cells; type: cell-based; details: compound by itself
Description: as §3

H9 cells = type: cell-based; details: human, 192 h
Description: A series of drug concentrations ranging from 1.25 μg/ml to 160 μg/ml were used for testing the cytotoxicity of M522 and M532 in H9 cells, using the MTT assay to determine the viability of H9 cells in culture. […] In fact, the drug-protected, HIV-infected H9 cells appeared to be morphologically identical to the uninfected control cells (6).
as §1

reverse transcriptase = molecular target: T1, reverse transcriptase (Human immunodeficiency virus type 1 group M subtype B, UniProt P04585); test: Reverse transcriptase activity and viral DNA levels in infected cells; type: cell-based, HIV
T1 construct: endogenous in cells; host or cells: HIV-infected cells (H9 cells named in the same paragraph)
Description: as §3

[7] = test system: HIV-1RTMF (AZT-resistant virus); test: HIV replication in infected H9 cells, HIV/p24 monoclonal antibody assay; type: cell-based
Description: as §2
A series of drug concentrations ranging from 1.25 μg/ml to 160 μg/ml were used for testing the cytotoxicity of M522 and M532 in H9 cells, using the MTT assay to determine the viability of H9 cells in culture.

[8] = molecular target: wild type HIV-1 integrase (Human immunodeficiency virus type 1 group M subtype B, UniProt P04585); test: Disintegration assay; type: biochemical; details: equal efficacy with deletion mutant
Description: (§4) To determine whether M522 and M532 are acting against the catalytic core domain specifically, disintegration assay was tested using deletion mutant IN containing only the core domain of HIV integrase. Such deletion mutant is defective for normal integration, but it is capable of catalyzing a reversal of the forward reaction, termed “disintegration”. The disintegration reaction can be assayed by using a deletion mutant HIV-1 integrase (IN^50-212) which lacks both the amino terminal zinc binding and the carboxyl terminal DNA binding domains but remains active in this assay, whereas such truncated IN loses activity in the 3′-processing and joining (strand transfer) assays. So, disintegration assay can be used to probe the site of drug-enzyme binding.

[9] = molecular target: deletion mutant HIV-1 integrase (IN^50-212) (Human immunodeficiency virus type 1 group M subtype B, UniProt P04585); test: Disintegration assay; type: biochemical; details: IN^50-212 core domain; equal efficacy with wild type
Description: as §4

HIV-1 integrase = HIV-1 integrase (Human immunodeficiency virus type 1 group M subtype B, UniProt P04585); test: HIV-1 integrase catalytic activity of 3'-joining to the target DNA; type: biochemical
Description: as §3

HIV-1 [10] = test system: HIV-1
HIV-1 [11] = details: read-out: inhibited HIV replication (IC90); FIG. 5

For `C[C@H](Cc1ccc(OC(=O)CN(C)C)c(OC(=O)CN(C)C)c1)[C@@H](C)Cc1ccc(OC(=O)CN(C)C)c(OC(=O)CN(C)C)c1` [G4N, meso-1,4-bis[3,4-(dimethylaminoacetoxy)phenyl]-(2R,3S)dimethylbutane], the “toxicity or dermal irritation” value ([1]; highest soluble concentrations (150 mM)) was “no evidence of toxicity or dermal irritation”, the toxicity ([1]; topical application for six days, up to 50 mM) was “no evidence of toxicity” and the “apparent equilibrium binding constant (Kapp)” value [2] was 3e+06 M⁻¹. For the same compound, the “response to treatment (visual assessment)” value (“response to treatment” for short) (HSV-1; 5 μM) was “semi-effective”, the “response to treatment” value (HSV-1; 10 μM) was “more effective” and the “response to treatment” value (HSV-1; 150 μM) was “extremely effective”. The “HSV-1 induced cutaneous lesion formation and viral shedding” value (HSV-1; guinea pig, in vivo) was “effectively inhibited”, the IC50 (HIV-1RTMF; H9 cells, p24 assay after 8 days, for the combination, this concentration of each drug, read-out: IC50) was 18 µM and the average score (HSV-2; 0.1 mM) was 0.5. For the same compound, the infection (HSV-2; 0.1 mM) was ~12.5 % infection, the animals infected (HSV-2; 0.1 mM, 10 mice per group, day 3 vaginal lavage) was 1 out of 10 and the animals infected (HSV-2; 10 mM, 10 mice per group) was “no infections detected”. For the same compound, the animals infected (HSV-2; 100 mM) was “no infections detected” and the “efficacy against acyclovir-resistant strains” value [3] was “no cross-resistance”.

In the case of `COc1ccc(C[C@@H](C)[C@@H](C)Cc2ccc(OC)c(OC)c2)cc1OC` [M4N, tetra-O-methyl NDGA], the toxicity [4] is reported as “no toxicity”, the “infection in the other 4 mice” value (HSV-2; 20 mg/ml in Vaseline) is reported as “very little infection” and the “mice fully infected, out of 8” value (HSV-2; 20 mg/ml in Vaseline) is reported as 4. For the same compound, the “score of the fully infected mice” value (HSV-2; 20 mg/ml in Vaseline) was 3-4 and the “efficacy against acyclovir-resistant strains” value [3] was “retains complete efficacy”.

For `O=C(/C=C/c1ccc(O)c2c1[C@H](C(=O)O)[C@@H](c1ccc(O)c(O)c1)O2)O[C@H](Cc1ccc(O)c(O)c1)C(=O)O` [M522, lithospermic acid], the IC50 (HIV-1IIIB) was 11 µg/mL and 20.4 µM, the IC50 (HIV-1MN) was 16.7 µM and 9 µg/mL and the IC50 (HIV-1IIIBA17 variant) was 1.1 µg/mL and 2 µM. The IC50 [5] was 6 µg/mL and 11.1 µM, the IC50 (HIV-1 [6]) was 2 µM and the “prevention of HIV entry” value (HIV) was “Neither M522 nor M532 by itself prevents HIV entry”. For the same compound, the IC50 (HIV-1RTMF; Human immunodeficiency virus 1, H9, 192 h) was 4 to 6 µM, the “CC100 (highest concentration tested, cells remained viable)” value (H9 cells) was 160 µg/mL and the “levels of intracellular strong stop and full-length viral DNA” value (reverse transcriptase; following drug treatment) was “remained unchanged”. The “inhibition of reverse transcriptase activity” value (reverse transcriptase; infected cells) was “no inhibition of reverse transcriptase activity”, the syncytia formation ([7]; H9 cells infected with HIV-1RTMF in the presence of drug) was “syncytia formation was prevented” and the IC50 ([7]; Human immunodeficiency virus 1, H9) was 2.5 µg/mL and 4.6 µM. For the same compound, the inhibition of disintegration [8] was “inhibited”, the inhibition of disintegration [9] was “inhibited” and the IC50 (HIV-1 integrase) was 0.48 µM.

In the case of acetylated Tieghemelin [oAc-Gen-1], the “HIV-1 entry and infection in CD4+ cells” value (HIV-1 [10]; preincubation of drug with CD4+ cells) is reported as “did not prevent HIV-1 entry and infection”, the “infectivity of HIV-1” value (HIV-1 [10]; preincubation of drug with HIV-1 virus) is reported as “totally inactivated the infectivity” and the IC90 (HIV-1 [11]) is reported as ~10 µM.
